# Experimental data published in patent publication US9434711B2 (Janssen Pharmaceutica, NV, priority 2007, dated 2016).
# Molecular target: canine TRPM8 (Canis lupus familiaris, UniProt Q1A7N1)
# Assay: In Vitro Canine TRPM8 Functional Assay (Ca2+ fluorescence, icilin activation)
# Type: cell-based
# Details: for IC50: HEK293 cells stably expressing canine TRPM8, icilin activation, eight-point dose-response, read-out: IC50; for inhibition at 0.2 µM / % Inh @ 0.2 (μM): compound at 0.2 μM; for inhibition at 0.2 µM: read-out: % Inh @ 0.2
# Outline: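 Canine TRPM8 stably expressed in HEK293; compound added 5 min before icilin challenge (~80% max response), with fluorescent Ca2+ signal tracked throughout.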
# [1] = canine TRPM8, icilin activation
# Chain of canine TRPM8 (Q1A7N1 1-1104): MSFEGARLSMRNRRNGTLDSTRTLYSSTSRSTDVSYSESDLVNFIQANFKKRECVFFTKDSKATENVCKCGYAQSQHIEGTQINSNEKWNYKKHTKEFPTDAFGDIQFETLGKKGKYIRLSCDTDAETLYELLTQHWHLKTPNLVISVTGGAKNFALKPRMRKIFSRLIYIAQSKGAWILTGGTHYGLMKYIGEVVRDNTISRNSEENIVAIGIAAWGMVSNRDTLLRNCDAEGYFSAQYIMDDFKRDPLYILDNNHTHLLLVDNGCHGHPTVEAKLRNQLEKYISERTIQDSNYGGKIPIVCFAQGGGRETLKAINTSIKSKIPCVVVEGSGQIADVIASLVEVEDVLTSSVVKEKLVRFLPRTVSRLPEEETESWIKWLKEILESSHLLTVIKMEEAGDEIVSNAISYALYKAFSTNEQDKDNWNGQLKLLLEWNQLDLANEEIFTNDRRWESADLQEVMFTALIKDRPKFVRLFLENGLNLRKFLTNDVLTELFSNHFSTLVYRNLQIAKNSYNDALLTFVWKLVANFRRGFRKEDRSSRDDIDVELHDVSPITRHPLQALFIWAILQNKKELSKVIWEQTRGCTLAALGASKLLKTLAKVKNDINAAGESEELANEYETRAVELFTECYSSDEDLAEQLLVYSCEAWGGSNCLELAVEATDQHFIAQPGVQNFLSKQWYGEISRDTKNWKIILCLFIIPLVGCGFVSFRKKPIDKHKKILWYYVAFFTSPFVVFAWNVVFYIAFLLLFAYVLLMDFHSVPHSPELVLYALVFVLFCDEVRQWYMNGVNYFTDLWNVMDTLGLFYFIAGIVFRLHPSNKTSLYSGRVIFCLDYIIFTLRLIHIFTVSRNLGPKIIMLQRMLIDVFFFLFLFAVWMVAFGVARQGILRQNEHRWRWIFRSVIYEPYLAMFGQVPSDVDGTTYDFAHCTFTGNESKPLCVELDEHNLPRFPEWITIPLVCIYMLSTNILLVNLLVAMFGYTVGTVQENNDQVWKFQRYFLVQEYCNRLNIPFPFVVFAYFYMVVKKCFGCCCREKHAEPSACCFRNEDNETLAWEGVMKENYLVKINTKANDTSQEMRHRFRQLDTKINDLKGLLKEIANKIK
Structure (SMILES),IC50,inhibition at 0.2 µM [1],"inhibition at 0.5 µM (compound at 0.5 μM, canine TRPM8, icilin activation, read-out: % Inh @ 0.5)",% Inh @ 0.2 (μM) [1]
"O=C(O)c1cccc(S(=O)(=O)N(Cc2ccc(F)c(C(F)(F)F)c2)c2cc3ccccc3s2)c1 [Compound 295, N-(Benzo[b]thiophen-2-yl)-N-(4-fluoro-3-trifluoromethyl-benzyl)-3-carboxy-benzenesulfonamide]",33 nM,81%,–,–
"O=C(O)c1ccccc1S(=O)(=O)N(Cc1ccc(F)c(C(F)(F)F)c1)c1sc2ccccc2c1Cl [Compound 297, N-(3-Chloro-benzo[b]thiophen-2-yl)-N-(4-fluoro-3-trifluoromethyl-benzyl)-2-carboxy-benzenesulfonamide]",–,21%,–,–
"O=C(O)c1ccccc1S(=O)(=O)N(Cc1ccc(F)c(C(F)(F)F)c1)c1sc2ccccc2c1Br [Compound 298, N-(3-Bromo-benzo[b]thiophen-2-yl)-N-(4-fluoro-3-trifluoromethyl-benzyl)-2-carboxy-benzenesulfonamide]",–,18%,–,–
"NS(=O)(=O)N(Cc1ccc(F)c(C(F)(F)F)c1)c1cc2ccccc2s1 [Compound 300, N-(Benzo[b]thiophen-2-yl)-N-(4-fluoro-3-trifluoromethyl-benzyl)-sulfamide]",–,21%,–,–
"NS(=O)(=O)N(Cc1ccc(F)c(C(F)(F)F)c1)c1sc2ccccc2c1Br [Compound 301, N-(3-Bromo-benzo[b]thiophen-2-yl)-N (4-fluoro-3-trifluoromethyl-benzyl)-sulfamide]",–,–,–,63%
"NS(=O)(=O)N(Cc1ccc(F)c(C(F)(F)F)c1)c1sc2ccccc2c1Cl [Compound 302, N-(3-Chloro-benzo[b]thiophen-2-yl)-N-(4-fluoro-3-trifluoromethyl-benzyl)-sulfamide]",–,50%,–,–
"NS(=O)(=O)N(CC1CC1)c1sc2ccccc2c1Br [Compound 303, N-(3-Bromo-benzo[b]thiophen-2-yl)-N-(cyclopropylmethyl)-sulfamide]",–,56%,–,–
"NS(=O)(=O)N(CCC(F)(F)F)c1sc2ccccc2c1Br [Compound 304, N-(3-Bromo-benzo[b]thiophen-2-yl)-N-(3,3,3-trifluoro-propyl)-sulfamide]",–,29%,–,–
"O=C(O)c1cccc(S(=O)(=O)N(Cc2ccc(F)c(C(F)(F)F)c2)c2sc3ccccc3c2Cl)c1 [Compound 307, N-(3-Chloro-benzo[b]thiophen-2-yl)-N-(4-fluoro-3-trifluoromethyl-benzyl)-3-carboxy-benzenesulfonamide]",15.1 nM,101%,–,–
"CC(=O)c1ccc(S(=O)(=O)N(Cc2ccc(F)c(C(F)(F)F)c2)c2cc3ccccc3s2)cc1 [Compound 308, N-(Benzo[b]thiophen-2-yl)-N-(4-fluoro-3-trifluoromethyl-benzyl)-4-acetyl-benzenesulfonamide]",69.8 nM,92%,–,–
"CNS(=O)(=O)N(Cc1ccc(F)c(C(F)(F)F)c1)c1sc2ccccc2c1Cl [Compound 309, N-(3-Chloro-benzo[b]thiophen-2-yl)-N-(4-fluoro-3-trifluoromethyl-benzyl)-N′-methyl-sulfamide]",55 nM,93%,–,–
"O=S(=O)(c1cccnc1Cl)N(Cc1ccc(F)c(C(F)(F)F)c1)c1cc2ccccc2s1 [Compound 310, N-(Benzo[b]thiophen-2-yl)-N-(4-fluoro-3-trifluoromethyl-benzyl)-2-chloro-pyridin-3-ylsulfonamide]",–,69%,–,–
"O=S(=O)(c1ccc(Cl)nc1)N(Cc1ccc(F)c(C(F)(F)F)c1)c1cc2ccccc2s1 [Compound 311, N-(Benzo[b]thiophen-2-yl)-N-(4-fluoro-3-trifluoromethyl-benzyl)-2-chloro-pyridin-5-ylsulfonamide]",148 nM,82%,–,–
"COC(=O)c1ccc(S(=O)(=O)N(Cc2ccc(F)c(C(F)(F)F)c2)c2sc3ccccc3c2C(C)=O)cc1 [Compound 313, N-(3-Acetyl-benzo[b]thiophen-2-yl)-N-(4-fluoro-3-trifluoromethyl-benzyl)-4-carbomethoxy-benzenesulfonamide]",21 nM,102%,–,–
"CN(C)S(=O)(=O)N(Cc1ccc(F)c(C(F)(F)F)c1)c1cc2ccccc2s1 [Compound 315, N-(Benzo[b]thiophen-2-yl)-N-(4-fluoro-3-trifluoromethyl-benzyl)-N′,N′-dimethlysulfamide]",64 nM,–,–,99%
"CN(C)S(=O)(=O)N(Cc1ccc(F)c(C(F)(F)F)c1)c1sc2ccccc2c1Br [Compound 317, N-(3-Bromo-benzo[b]thiophen-2-yl)-N-(4-fluoro-3-trifluoromethyl-benzyl)-N′,N′-dimethlysulfamide]",17 nM,–,–,102%
"O=S(=O)(c1cccnc1Cl)N(Cc1ccc(F)c(C(F)(F)F)c1)c1sc2ccccc2c1Br [Compound 319, N-(3-Bromo-benzo[b]thiophen-2-yl)-N-(4-fluoro-3-trifluoromethyl-benzyl)-2-chloro-pyridin-3-ylsulfonamide]",24 nM,100%,–,–
"O=S(=O)(c1cccnc1Cl)N(Cc1ccc(F)c(C(F)(F)F)c1)c1sc2ccccc2c1Cl [Compound 321, N-(3-Chloro-benzo[b]thiophen-2-yl)-N-(4-fluoro-3-trifluoromethyl-benzyl)-2-chloro-pyridin-3-ylsulfonamide]",70 nM,81%,–,–
"O=S(=O)(c1cccnc1)N(Cc1cc(Cl)ccc1F)c1sc2ccccc2c1Br [Compound 324, N-(3-Bromo-benzo[b]thiophen-2-yl)-N-(2-fluoro-5-chloro-benzyl)-pyridin-3-ylsulfonamide]",15 nM,100%,–,–

# Second part, the compound after the results:
IC50,inhibition at 0.2 µM [1],"inhibition at 0.5 µM (compound at 0.5 μM, canine TRPM8, icilin activation, read-out: % Inh @ 0.5)",% Inh @ 0.2 (μM) [1],Structure (SMILES)
5.8 nM,101%,–,–,"O=S(=O)(c1cccc(O)c1)N(Cc1ccc(F)c(C(F)(F)F)c1)c1sc2ccccc2c1Br [Compound 291, N-(3-Bromo-benzo[b]thiophen-2-yl)-N-(4-fluoro-3-trifluoromethyl-benzyl)-3-hydroxy-benzenesulfonamide]"
7.8 nM,101%,101%,–,"O=C(O)c1cccc(S(=O)(=O)N(Cc2ccc(F)c(C(F)(F)F)c2)c2sc3ccccc3c2Br)c1 [Compound 293, N-(3-Bromo-benzo[b]thiophen-2-yl)-N-(4-fluoro-3-trifluoromethyl-benzyl)-3-carboxy-benzenesulfonamide]"
1.8 nM,99%,–,–,"O=C(O)c1ccc(S(=O)(=O)N(Cc2ccc(F)c(C(F)(F)F)c2)c2sc3ccccc3c2Cl)cc1 [Compound 294, N-(3-Chloro-benzo[b]thiophen-2-yl)-N-(4-fluoro-3-trifluoromethyl-benzyl)-4-carboxy-benzenesulfonamide]"
2 nM,96%,–,–,"O=C(O)c1ccc(S(=O)(=O)N(Cc2ccc(F)c(C(F)(F)F)c2)c2cc3ccccc3s2)cc1 [Compound 296, N-(Benzo[b]thiophen-2-yl)-N-(4-fluoro-3-trifluoromethyl-benzyl)-4-carboxy-benzenesulfonamide]"
3 nM,90%,–,–,"O=Cc1c(N(Cc2ccc(F)c(C(F)(F)F)c2)S(=O)(=O)c2ccc(C(=O)O)cc2)sc2ccccc12 [Compound 299, N-(3-Formyl-benzo[b]thiophen-2-yl)-N-(4-fluoro-3-trifluoromethyl-benzyl)-4-carboxy-benzenesulfonamide]"
12 nM,97%,–,–,"Cc1c(N(Cc2ccc(F)c(C(F)(F)F)c2)S(=O)(=O)c2cccc(C(=O)O)c2)sc2ccccc12 [Compound 305, N-(3-Methyl-benzo[b]thiophen-2-yl)-N-(4-fluoro-3-trifluoromethyl-benzyl)-3-carboxy-benzenesulfonamide]"
11 nM,102%,–,–,"CC(=O)c1ccc(S(=O)(=O)N(Cc2ccc(F)c(C(F)(F)F)c2)c2sc3ccccc3c2Br)cc1 [Compound 312, N-(3-Bromo-benzo[b]thiophen-2-yl)-N-(4-fluoro-3-trifluoromethyl-benzyl)-4-acetyl-benzenesulfonamide]"
10 nM,102%,–,–,"CC(=O)c1c(N(Cc2ccc(F)c(C(F)(F)F)c2)S(=O)(=O)c2ccccc2)sc2ccccc12 [Compound 314, N-(3-Acetyl-benzo[b]thiophen-2-yl)-N-(4-fluoro-3-trifluoromethyl-benzyl)-benzenesulfonamide]"
10 nM,101%,–,–,"CC(C)(O)c1c(N(Cc2ccc(F)c(C(F)(F)F)c2)S(=O)(=O)c2ccccc2)sc2ccccc12 [Compound 316, N-(4-Fluoro-3-trifluoromethyl-benzyl)-N-[3-(1-hydroxy-1-methyl-ethyl)-benzo[b]thiophen-2-yl]-benzenesulfonamide]"
15 nM,101%,–,–,"CC(=O)c1c(N(Cc2ccc(F)c(C(F)(F)F)c2)S(=O)(=O)c2ccc(C(=O)O)cc2)sc2ccccc12 [Compound 318, N-(3-Acetyl-benzo[b]thiophen-2-yl)-N-(4-fluoro-3-trifluoromethyl-benzyl)-4-carboxy-benzenesulfonamide]"
10 nM,100%,–,–,"O=S(=O)(c1ccc(Cl)nc1)N(Cc1ccc(F)c(C(F)(F)F)c1)c1sc2ccccc2c1Br [Compound 320, N-(3-Bromo-benzo[b]thiophen-2-yl)-N-(4-fluoro-3-trifluoromethyl-benzyl)-2-chloro-pyridin-5-ylsulfonamide]"
10 nM,99%,–,–,"O=S(=O)(c1cccnc1)N(Cc1ccc(C(F)(F)F)c(F)c1)c1sc2ccccc2c1Br [Compound 322, N-(3-Bromo-benzo[b]thiophen-2-yl)-N-(3-fluoro-4-trifluoromethyl-benzyl)-pyridin-3-ylsulfonamide]"
10 nM,102%,–,–,"O=S(=O)(c1cccnc1)N(Cc1ccc(OC(F)(F)F)cc1)c1sc2ccccc2c1Br [Compound 323, N-(3-Bromo-benzo[b]thiophen-2-yl)-N-(4-trifluoromethoxy-benzyl)-pyridin-3-ylsulfonamide]"
